Where two headings read alike, the source gives them in different places.
Key:
[1] = cited from earlier work
brain tumor patients [2] = assay: DS-DGE MRI at 3 T in brain tumor patients with D-Glc infusion; design: species or system human; settings: in vivo
Description: Four brain tumor patients were studied (one with an IDH-wildtype glioblastoma, two with a grade 2 IDH-mutated astrocytoma, and one with ALK-mutated non-small-cell lung cancer metastases). The project was approved by the local Institutional Review Board, and each participant provided written informed consent. Participants were asked to fast six hours before the study, but clear liquids were permitted. Before the start of the MRI examination, blood was drawn to verify normal baseline glucose levels (3.9-7.0 mM).
Patients were examined on a 3 T Philips Elition RX system (Philips Healthcare, Best, the Netherlands). Pre- and post-contrast enhanced T1-MPRAGE, FLAIR, DS-DGE, DCE and DSC images were acquired T1-MPRAGE: TR/TE/FA=7.5 ms/3.5 ms/8°, FOV=212×212 mm^2, resolution=1.1×1.1×2.2 mm^3, inversion time=755 ms, acquisition time=1 min 46 s, and FLAIR: TR/TE=11,000/120 ms, FOV=212×212 mm^2 resolution=1.1×1.1×2.2 mm^3, inversion time=2800 ms, acquisition time=3 min 51 s.
DS-DGE images were acquired using ten consecutive 50-ms sinc-gaussian pulses (B1peak=0.5 μTtsat=0.5 s), followed by a whole-brain simultaneous multi-slice EPI readout (multi-band factor 3). A total of 27 slices with FOV of 208×208 mm^2 and a resolution of 2.2×2.2×4.4 mm^3 were acquired using TR/TE/FA=1200 ms/17 ms/52°. 32 frequencies were acquired in 38.2 s at offsets: ±[10 (2×), 5.0, 2.5, 2.0, 1.5, 1.2, 1.0, 0.80, 0.70, 0.60, 0.50, 0.40, 0.30, 0.20, 0.10] ppm. In total 40 dynamics (Z-spectra) were acquired. Approximately five minutes into the scan (after the 8th dynamic), D-Glc was administrated intravenously with a power-injector at a rate of 6.25 g/min using hospital-grade D50 glucose (D50, Hospira Inc., Lake Forest, IL; 35 g of D-Glc in 70 mL of water sterile solution prepared by the Johns Hopkins pharmacy), followed by a saline rinse. Total experiment duration was 25.5 min.
The dynamic DS spectrum signal intensities from each voxel were normalized using the average of the second of two acquisitions at ±10 ppm and then fitted to a Lorentzian line shape using the DL-based single Lorentzian fitting neural network (sLoFNet)^43. The linewidths, defined as FWHM in the DL fitting, were used to generate LW maps (in Hz) for each dynamic. The dynamic linewidth maps were rigid motion corrected using Elastix^48 and visually inspected for remaining motion artefacts.
A baseline was calculated by averaging the linewidth maps obtained before infusion. To remove outliers, baseline LWs greater or less than the average±2SD were discarded. LWbase was then calculated by averaging the remaining baseline LWs. Dynamic ΔLW images were obtained by subtracting LWbase from each linewidth dynamic image, LW(t), followed by normalization with LWbase:
Normalized area-under-the-curve (AUC) was calculated by subtracting LWbase from the average of dynamic LWs obtained from infusion start and through the dynamic scan (LWaverage), followed by normalization with LWbase:
Normalized AUC over the infusion block alone was also calculated. Both fitting and calculations were performed in Python.

brain tumor patients [3] = settings: cited from earlier work
[4] = cited from earlier work; remark: listed apart in the source

SMILES: O=C[C@H](O)[C@@H](O)[C@H](O)[C@H](O)CO [D-glucose]
- hydroxyl proton exchange rate ([1]; hydroxyl pool at 0.66 ppm, pH 6.8 (TUMOR EES)): 1500 Hz
- hydroxyl proton exchange rate ([1]; hydroxyl pool at 0.66 ppm, pH 7.2, 37° C.): 2900 Hz
- hydroxyl proton exchange rate ([1]; hydroxyl pool at 1.28 ppm, pH 6.8 (TUMOR EES)): 3100 Hz
- hydroxyl proton exchange rate ([1]; hydroxyl pool at 1.28 ppm, pH 7.2, 37° C.): 6500 Hz
- hydroxyl proton exchange rate ([1]; hydroxyl pool at 2.08 ppm, pH 6.8 (TUMOR EES)): 2500 Hz
- hydroxyl proton exchange rate ([1]; hydroxyl pool at 2.08 ppm, pH 7.2, 37° C.): 5200 Hz
- hydroxyl proton exchange rate ([1]; hydroxyl pool at 2.88 ppm, pH 6.8 (TUMOR EES)): 6000 Hz
- hydroxyl proton exchange rate ([1]; hydroxyl pool at 2.88 ppm, pH 7.2, 37° C.): 14300 Hz
- ΔLW (DS linewidth change) (brain tumor patients [2]; (ventricular) CSF, 35 g D-glucose infusion, 3 T): ~40%
- ΔLW (DS linewidth change) (brain tumor patients [2]; GM/WM, 35 g D-glucose infusion, 3 T): approximately 1%
- ΔLW (DS linewidth change) (brain tumor patients [2]; contrast enhanced peri-cavity infiltrative tumor region, recurrent IDH-wildtype glioblastoma patient, during infusion): approximately 15%
- ΔLW (DS linewidth change) (brain tumor patients [2]; different tumor types, 35 g D-glucose infusion, 3 T): 5-20%
- LW change (brain tumor patients [2]; white matter, lung cancer brain metastases patient): negligible
- DGE MRI effect size (brain tumor patients [3]; contrast enhanced tumor area, LGG and HGG patients, maximum dose 20 g of D-Glc in 100 mL, Bender et al.): ≤ 0.25%
- DGE MRI effect size (brain tumor patients [3]; glioblastoma, 3 T, Xu et al.): approximately 1.5%
- DGE MRI effect size (brain tumor patients [3]; low and high grade glioma enhancement areas, dose of 25 g, Mo et al.): 0.5-1.5%
- DGE MRI signal increase after D-Glc infusion (brain tumor patients [3]; metastases, Wu et al.): ≤ 10%
- venous plasma blood glucose average increase ([4]; D-Glc dose of 25 g, N=11, previous DGE MRI study): 9.8 mM
- increase in plasma blood glucose ([4]; maximum D-Glc dose of 25 g, previous DGE studies): up to 15 mM

Reference: patent publication US20250339051A1, “DYNAMIC CHEMICAL-EXCHANGE-SATURATION-TRANSFER (CEST) AGENT ENHANCED MRI USING DIRECT WATER SATURATION” (The Johns Hopkins University, priority 2024, published 2025)
